Laboratory results reported in paper PMC10746543, “Design principles for cyclin K molecular glue degraders” (Nature Chemical Biology, 2023).
Several values for one entry are separate records, joined by “and”; a condition that tells them apart may be missing. Identical values can stand only once. Like-named read-outs stand apart in the source and are kept apart here. Each block holds one compound with its values, some of them ahead of it.

Legend:
CDK2–cyclin A = biological target: T1, CDK2–cyclin A (Homo sapiens, UniProt P24941); test: Lanthascreen kinase binding assay, CDK2; details: for Lanthascreen signal, sheet CDK2: raw replicates, experiment r1-r11
T1 construct: purchased Thermo Fisher
Description: (§1) Lanthascreen experiments were performed using commercially available reagents (Thermo Fisher) and according to the manufacturer’s instructions.

CDK12–cyclin K and DDB1 = biological target: T2, CDK12–cyclin K and DDB1 (Homo sapiens, UniProt Q16531+Q9NYV4, K965R); test: TR-FRET ternary complex formation assay (compound titration); type: binding; details: for EC50: read-out: TR-FRET EC50
T2 construct: His6–CDK12 (a.a. 713–1,052); full-length or beta-propeller B domain deletion (ΔBPB: a.a. 396–705 deleted) constructs of His6–DDB1ΔBPB, StrepII–Avi–DDB1, or His6–Spy–DDB1; made in house; host or cells: Trichoplusia ni High Five insect cells (baculovirus)
T2 sequence (Q9NYV4 713-1052 K965R): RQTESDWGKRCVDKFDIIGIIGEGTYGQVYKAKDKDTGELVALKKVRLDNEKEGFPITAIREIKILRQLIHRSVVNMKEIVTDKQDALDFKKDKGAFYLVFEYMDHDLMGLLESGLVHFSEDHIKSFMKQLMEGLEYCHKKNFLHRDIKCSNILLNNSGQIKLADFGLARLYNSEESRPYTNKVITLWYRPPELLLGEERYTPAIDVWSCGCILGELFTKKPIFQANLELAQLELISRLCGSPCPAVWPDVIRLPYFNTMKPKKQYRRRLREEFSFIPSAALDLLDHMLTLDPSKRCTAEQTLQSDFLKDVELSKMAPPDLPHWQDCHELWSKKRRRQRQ
T2 sequence (O75909 1-267 partner): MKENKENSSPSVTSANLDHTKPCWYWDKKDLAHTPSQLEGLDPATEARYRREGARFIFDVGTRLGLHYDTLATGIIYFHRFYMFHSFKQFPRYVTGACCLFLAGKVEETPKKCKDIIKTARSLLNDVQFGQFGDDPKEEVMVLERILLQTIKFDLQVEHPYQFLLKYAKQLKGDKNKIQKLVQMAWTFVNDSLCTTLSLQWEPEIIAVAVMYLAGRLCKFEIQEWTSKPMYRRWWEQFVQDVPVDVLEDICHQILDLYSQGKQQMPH
T2 sequence (Q16531 whole entry): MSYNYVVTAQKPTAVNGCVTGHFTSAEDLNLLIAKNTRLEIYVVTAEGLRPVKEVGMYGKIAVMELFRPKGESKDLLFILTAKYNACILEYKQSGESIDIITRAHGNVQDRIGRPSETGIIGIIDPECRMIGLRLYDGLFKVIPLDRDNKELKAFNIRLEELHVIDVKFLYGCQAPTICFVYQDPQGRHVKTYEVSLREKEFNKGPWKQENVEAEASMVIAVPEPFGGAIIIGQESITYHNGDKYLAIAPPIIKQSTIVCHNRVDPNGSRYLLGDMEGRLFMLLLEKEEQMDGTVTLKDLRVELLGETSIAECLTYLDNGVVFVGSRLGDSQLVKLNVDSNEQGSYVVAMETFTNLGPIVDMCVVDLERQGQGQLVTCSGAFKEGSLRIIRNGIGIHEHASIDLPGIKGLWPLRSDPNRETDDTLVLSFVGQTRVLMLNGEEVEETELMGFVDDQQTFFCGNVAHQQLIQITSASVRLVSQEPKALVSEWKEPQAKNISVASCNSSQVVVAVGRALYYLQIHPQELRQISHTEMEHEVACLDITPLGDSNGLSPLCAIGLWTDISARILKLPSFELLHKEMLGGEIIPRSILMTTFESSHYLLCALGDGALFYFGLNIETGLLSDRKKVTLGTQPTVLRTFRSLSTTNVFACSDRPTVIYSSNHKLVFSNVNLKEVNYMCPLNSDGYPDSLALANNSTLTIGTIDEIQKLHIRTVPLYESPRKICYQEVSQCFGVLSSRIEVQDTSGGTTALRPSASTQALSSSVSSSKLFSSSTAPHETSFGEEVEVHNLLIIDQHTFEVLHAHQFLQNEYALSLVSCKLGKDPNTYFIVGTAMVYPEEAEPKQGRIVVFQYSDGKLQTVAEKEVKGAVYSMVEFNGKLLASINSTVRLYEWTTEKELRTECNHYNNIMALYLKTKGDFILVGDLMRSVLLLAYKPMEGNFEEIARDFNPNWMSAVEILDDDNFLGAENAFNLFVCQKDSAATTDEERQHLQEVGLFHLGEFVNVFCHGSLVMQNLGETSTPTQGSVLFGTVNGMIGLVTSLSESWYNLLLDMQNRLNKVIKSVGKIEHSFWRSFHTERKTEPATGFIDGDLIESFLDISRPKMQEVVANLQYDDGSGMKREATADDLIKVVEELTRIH
Summary of the method: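 Read-out used a 70 μs delay to cut background fluorescence; TR-FRET signal taken as the 520 nm/490 nm emission ratio.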

CDK12–cyclin K = CDK12–cyclin K (Homo sapiens, UniProt Q9NYV4); test: Lanthascreen kinase binding assay, CDK12; details: for IC50: Supplementary Table 2, read-out: Lanthascreen IC50 [nM] CDK12; for Lanthascreen raw signal, sheet CDK12: series r1, duplicates
CDK12–cyclin K, sequence (Q9NYV4 713-1052): as the sequence (Q9NYV4 713-1052 K965R) above, with R253K counted along it
CDK12–cyclin K, sequence (O75909 1-267 partner limits assumed): as the sequence (O75909 1-267 partner) above
Description: as §1

[1] = test system: cyclin K–eGFP degradation reporter; test: Cyclin K reporter stability analysis (dual-color cyclin K–eGFP reporter); type: cell-based, human; details: source data sheet correlations; read-out: DC50
Summary of the method: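 HEK293T–Cas9 cells carrying the cyclin K–eGFP reporter were seeded at 1 × 10^6 ml^−1 and exposed to drug or DMSO for 5 h. Flow cytometry gave geometric means of eGFP and mCherry in round, mCherry-positive cells. The eGFP/mCherry ratio was normalized to the mean of three DMSO controls.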

HEK293T cells = test: Drug sensitivity assay (CellTiter-Glo viability) with or without MLN4924 pretreatment; type: cell-based, human; details: Supplementary Table 2; for EC50: Homo sapiens, HEK-293T, HEK293T viability, 72 h, compound alone, read-out: Cellular assays EC50; for Toxicity rescue: MLN4924-mediated cytotoxicity rescue, 10 µM used where n.d.
Summary of the method: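 HEK293T–Cas9 cells at 0.15 × 10^6 ml^−1 were treated with DMSO or 100 nM MLN4924 before plating. Test drugs were added 2 h later and exposure lasted 3 days. Viability was read by CellTiter-Glo luminescence and expressed relative to DMSO controls.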

CDK9–cyclin T = biological target: T3, CDK9–cyclin T (Homo sapiens, UniProt P50750); test: Lanthascreen kinase binding assay, CDK9; details: for IC50: Supplementary Table 2, read-out: Lanthascreen IC50 [nM] CDK9; for Lanthascreen TR-FRET signal (raw ratio), sheet CDK9: first titration set (r1), duplicates
T3 construct: purchased Thermo Fisher
T3 sequence (P50750 whole entry): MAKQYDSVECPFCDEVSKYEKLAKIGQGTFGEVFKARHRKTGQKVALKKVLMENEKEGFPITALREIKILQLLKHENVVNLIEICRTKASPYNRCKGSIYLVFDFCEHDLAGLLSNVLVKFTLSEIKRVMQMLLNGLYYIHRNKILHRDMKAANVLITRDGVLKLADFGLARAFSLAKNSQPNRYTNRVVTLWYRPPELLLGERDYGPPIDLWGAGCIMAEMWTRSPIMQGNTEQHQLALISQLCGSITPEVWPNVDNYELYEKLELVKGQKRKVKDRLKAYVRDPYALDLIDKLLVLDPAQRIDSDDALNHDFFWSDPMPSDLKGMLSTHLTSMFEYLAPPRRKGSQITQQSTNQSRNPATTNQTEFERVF
T3 sequence (O60563 whole entry partner): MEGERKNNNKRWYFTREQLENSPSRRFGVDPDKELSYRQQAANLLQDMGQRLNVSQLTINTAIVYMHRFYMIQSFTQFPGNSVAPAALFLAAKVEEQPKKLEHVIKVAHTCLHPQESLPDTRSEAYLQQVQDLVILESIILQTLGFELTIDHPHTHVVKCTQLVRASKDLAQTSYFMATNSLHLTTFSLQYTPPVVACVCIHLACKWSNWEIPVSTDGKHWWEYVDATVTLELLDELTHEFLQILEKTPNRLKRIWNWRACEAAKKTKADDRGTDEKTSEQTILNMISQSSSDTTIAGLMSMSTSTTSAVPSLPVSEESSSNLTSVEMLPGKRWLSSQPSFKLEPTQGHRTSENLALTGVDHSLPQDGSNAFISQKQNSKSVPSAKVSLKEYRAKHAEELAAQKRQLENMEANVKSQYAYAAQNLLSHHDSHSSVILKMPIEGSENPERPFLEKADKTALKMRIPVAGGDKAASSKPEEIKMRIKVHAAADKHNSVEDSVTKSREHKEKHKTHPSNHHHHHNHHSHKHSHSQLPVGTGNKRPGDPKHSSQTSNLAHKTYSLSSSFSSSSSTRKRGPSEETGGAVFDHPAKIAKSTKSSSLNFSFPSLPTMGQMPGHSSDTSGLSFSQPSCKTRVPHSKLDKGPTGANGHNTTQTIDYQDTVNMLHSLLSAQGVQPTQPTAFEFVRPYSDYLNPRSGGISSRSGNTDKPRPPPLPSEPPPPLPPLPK
Description: as §1

[2] = Supplementary Table 2, read-out: Lanthascreen IC50 [nM] CDK2

- Lanthascreen signal, sheet CDK2 (CDK2–cyclin A; Compound 1.02544 nM): 0.009384 and 0.009817
- Lanthascreen signal, sheet CDK2 (CDK2–cyclin A; Compound 3.15521 nM): 0.009333 and 0.009829
- Lanthascreen signal, sheet CDK2 (CDK2–cyclin A; Compound 9.46563 nM): 0.009654 and 0.01088
- Lanthascreen signal, sheet CDK2 (CDK2–cyclin A; Compound 31.5521 nM): 0.008522 and 0.009526
- Lanthascreen signal, sheet CDK2 (CDK2–cyclin A; Compound 99.3891 nM): 0.01016 and 0.009968
- Lanthascreen signal, sheet CDK2 (CDK2–cyclin A; Compound 315.521 nM): 0.008698 and 0.009504
- Lanthascreen signal, sheet CDK2 (CDK2–cyclin A; Compound 3155.21 nM): 0.005132 and 0.004872
- Lanthascreen signal, sheet CDK2 (CDK2–cyclin A; Compound 10002 nM): 0.003933 and 0.00458
- IC50 (CDK2–cyclin A; [2]): 1060 nM
- TR-FRET signal at compound concentration 0.468 nM (CDK12–cyclin K and DDB1; compound concentration 0.468 nM, raw replicate titration data): 0.3453 and 0.3314 and 0.2038 and 0.2054
- TR-FRET signal at compound concentration 2.16 nM (CDK12–cyclin K and DDB1; compound concentration 2.16 nM, raw replicate titration data): 0.4522 and 0.4261 and 0.3132 and 0.3307
- TR-FRET signal at compound concentration 3.6 nM (CDK12–cyclin K and DDB1; compound concentration 3.6 nM, raw replicate titration data): 0.6871 and 0.6344 and 0.5591 and 0.6106
- TR-FRET signal at compound concentration 7.92001 nM (CDK12–cyclin K and DDB1; compound concentration 7.92001 nM, raw replicate titration data): 1.2161 and 1.061 and 1.142 and 1.169
- TR-FRET signal at compound concentration 15.84 nM (CDK12–cyclin K and DDB1; compound concentration 15.84 nM, raw replicate titration data): 2.149 and 1.974 and 2.1219 and 2.262
- TR-FRET signal at compound concentration 30.96 nM (CDK12–cyclin K and DDB1; compound concentration 30.96 nM, raw replicate titration data): 3.31 and 3.181 and 2.938 and 2.942
- TR-FRET signal at compound concentration 62.6401 nM (CDK12–cyclin K and DDB1; compound concentration 62.6401 nM, raw replicate titration data): 3.363 and 3.323 and 3.061 and 3.125
- TR-FRET signal at compound concentration 125.28 nM (CDK12–cyclin K and DDB1; compound concentration 125.28 nM, raw replicate titration data): 3.473 and 3.376 and 3.04 and 3.123
- TR-FRET signal at compound concentration 244.8 nM (CDK12–cyclin K and DDB1; compound concentration 244.8 nM, raw replicate titration data): 3.475 and 3.275 and 3.121 and 3.153
- TR-FRET signal at compound concentration 993.601 nM (CDK12–cyclin K and DDB1; compound concentration 993.601 nM, raw replicate titration data): 3.459 and 3.133 and 3.073
- TR-FRET signal at compound concentration 2001.6 nM (CDK12–cyclin K and DDB1; compound concentration 2001.6 nM, raw replicate titration data): 3.344 and 3.271 and 3.14 and 3.1113
- EC50 (CDK12–cyclin K and DDB1; in vitro complex formation, 50 nM CDK12–cyclin K, 100 nM DDB1, text and figures): 12 ± 1 nM
- EC50 (CDK12–cyclin K and DDB1; source data sheet correlations): 12.2 nM
- IC50 (CDK12–cyclin K): 1 nM
- Lanthascreen raw signal, sheet CDK12 (CDK12–cyclin K; compound 1.02544 nM): 0.008081 and 0.009101
- Lanthascreen raw signal, sheet CDK12 (CDK12–cyclin K; compound 3.15521 nM): 0.008849 and 0.007319
- Lanthascreen raw signal, sheet CDK12 (CDK12–cyclin K; compound 9.46563 nM): 0.006356 and 0.00835
- Lanthascreen raw signal, sheet CDK12 (CDK12–cyclin K; compound 31.5521 nM): 0.005926 and 0.005481
- Lanthascreen raw signal, sheet CDK12 (CDK12–cyclin K; compound 99.3891 nM): 0.005678 and 0.004673
- Lanthascreen raw signal, sheet CDK12 (CDK12–cyclin K; compound 315.521 nM): 0.005163 and 0.006077
- Lanthascreen raw signal, sheet CDK12 (CDK12–cyclin K; compound 3155.21 nM): 0.003862 and 0.004893
- Lanthascreen raw signal, sheet CDK12 (CDK12–cyclin K; compound 10002 nM): 0.003963 and 0.004045
- DC50 [1]: 6 nM
- IC50 (CDK9–cyclin T): 104 nM
- Lanthascreen TR-FRET signal (raw ratio), sheet CDK9 (CDK9–cyclin T; compound 1.02544 nM): 0.0138 and 0.01522
- Lanthascreen TR-FRET signal (raw ratio), sheet CDK9 (CDK9–cyclin T; compound 3.15521 nM): 0.01223 and 0.01249
- Lanthascreen TR-FRET signal (raw ratio), sheet CDK9 (CDK9–cyclin T; compound 9.46563 nM): 0.0129 and 0.01178
- Lanthascreen TR-FRET signal (raw ratio), sheet CDK9 (CDK9–cyclin T; compound 31.5521 nM): 0.00952 and 0.01286
- Lanthascreen TR-FRET signal (raw ratio), sheet CDK9 (CDK9–cyclin T; compound 99.3891 nM): 0.008274 and 0.008068
- Lanthascreen TR-FRET signal (raw ratio), sheet CDK9 (CDK9–cyclin T; compound 315.521 nM): 0.006761 and 0.006072
- Lanthascreen TR-FRET signal (raw ratio), sheet CDK9 (CDK9–cyclin T; compound 3155.21 nM): 0.003594 and 0.002711
- Lanthascreen TR-FRET signal (raw ratio), sheet CDK9 (CDK9–cyclin T; compound 10002 nM): 0.003294 and 0.003353
Compound: Fc1ccc2[nH]c(CNc3nc(N4CCOCC4)nc4c(Br)cnn34)nc2c1F [DS72]
- EC50 (HEK293T cells): 6 nM
- Toxicity rescue (HEK293T cells): 533%

- Lanthascreen signal, sheet CDK2 (CDK2–cyclin A; Compound 1.02544 nM): 0.01113 and 0.009882
- Lanthascreen signal, sheet CDK2 (CDK2–cyclin A; Compound 3.15521 nM): 0.009971 and 0.01033
- Lanthascreen signal, sheet CDK2 (CDK2–cyclin A; Compound 9.46563 nM): 0.01229 and 0.009342
- Lanthascreen signal, sheet CDK2 (CDK2–cyclin A; Compound 31.5521 nM): 0.009577 and 0.009489
- Lanthascreen signal, sheet CDK2 (CDK2–cyclin A; Compound 99.3891 nM): 0.0109 and 0.009513
- Lanthascreen signal, sheet CDK2 (CDK2–cyclin A; Compound 315.521 nM): 0.01017 and 0.01118
- Lanthascreen signal, sheet CDK2 (CDK2–cyclin A; Compound 3155.21 nM): 0.009276 and 0.007116
- Lanthascreen signal, sheet CDK2 (CDK2–cyclin A; Compound 10002 nM): 0.008712 and 0.007113
- IC50 (CDK2–cyclin A; Lanthascreen, average, Extended Data Fig. 8, read-out: CDK2 IC50): > 10000 nM
- IC50 (CDK2–cyclin A; [2]): > 10000 nM
- EC50 (CDK12–cyclin K and DDB1; source data sheet correlations): 833 nM
- IC50 (CDK12–cyclin K): 1940 nM
- Lanthascreen raw signal, sheet CDK12 (CDK12–cyclin K; compound 1.02544 nM): 0.008768 and 0.008409
- Lanthascreen raw signal, sheet CDK12 (CDK12–cyclin K; compound 3.15521 nM): 0.009734 and 0.0102
- Lanthascreen raw signal, sheet CDK12 (CDK12–cyclin K; compound 9.46563 nM): 0.009031 and 0.008491
- Lanthascreen raw signal, sheet CDK12 (CDK12–cyclin K; compound 31.5521 nM): 0.008872 and 0.01072
- Lanthascreen raw signal, sheet CDK12 (CDK12–cyclin K; compound 99.3891 nM): 0.01101 and 0.009378
- Lanthascreen raw signal, sheet CDK12 (CDK12–cyclin K; compound 315.521 nM): 0.008266 and 0.00879
- Lanthascreen raw signal, sheet CDK12 (CDK12–cyclin K; compound 3155.21 nM): 0.006586 and 0.00831
- Lanthascreen raw signal, sheet CDK12 (CDK12–cyclin K; compound 10002 nM): 0.00787 and 0.005759
- DC50 [1]: 3490 nM
- IC50 (CDK9–cyclin T): 2230 nM
- Lanthascreen TR-FRET signal (raw ratio), sheet CDK9 (CDK9–cyclin T; compound 1.02544 nM): 0.01363 and 0.01444
- Lanthascreen TR-FRET signal (raw ratio), sheet CDK9 (CDK9–cyclin T; compound 3.15521 nM): 0.01374 and 0.01202
- Lanthascreen TR-FRET signal (raw ratio), sheet CDK9 (CDK9–cyclin T; compound 9.46563 nM): 0.01193 and 0.01374
- Lanthascreen TR-FRET signal (raw ratio), sheet CDK9 (CDK9–cyclin T; compound 31.5521 nM): 0.01293 and 0.01321
- Lanthascreen TR-FRET signal (raw ratio), sheet CDK9 (CDK9–cyclin T; compound 99.3891 nM): 0.01614 and 0.01565
- Lanthascreen TR-FRET signal (raw ratio), sheet CDK9 (CDK9–cyclin T; compound 315.521 nM): 0.01216 and 0.01193
- Lanthascreen TR-FRET signal (raw ratio), sheet CDK9 (CDK9–cyclin T; compound 3155.21 nM): 0.009114 and 0.00834
- Lanthascreen TR-FRET signal (raw ratio), sheet CDK9 (CDK9–cyclin T; compound 10002 nM): 0.005656 and 0.005947
Compound: COc1cc2nc(CN3CCc4sccc4C3)[nH]c(=O)c2cc1OC [Z12]
- EC50 (HEK293T cells): 1370 nM
- Toxicity rescue (HEK293T cells): 49%
